We go through 19 compounds from patent US20240059689A1, “PURINE DERIVATIVES AS ANTICANCER AGENTS” (Tango Therapeutics, Inc., priority 2021, published 2024).

One experiment concerns the target USP1-UAF1 (Homo sapiens, UniProt O94782). The experiment is described as follows: Ubiquitin Rhodamine assay of USP1-UAF1 activity. The class given is biochemical. How it is done: Certain compounds of the disclosure were assessed for USP1-UAF1 activity in a Ubiquitin Rhodamine assay as described in Biology Example 1.
The next experiment deals with HCC1954. Briefly: Viability assay, BRCA1 WT cell line HCC1954. The class given is cell-based. The note with it: Homo sapiens, HCC1954, viability, read-out: HCC1954 rel IC50. An excerpt:
(§1) Table 1 also indicates IC50 values in a viability assay for a non-isogenic pair of BRCA1 mutant (column 5-MDA-MB-436) and BRCA1 WT (column 6—HCC1954) cell lines. These values indicate the effect of treatment with compound on cell survival.

In the next experiment the test system is MDA-MB-436. Briefly: Viability assay, BRCA1 mutant cell line MDA-MB-436. The class given is cell-based. The note with it: Homo sapiens, MDA-MB-436, viability, BRCA1 mutant MDA-MB-436; read-out: MDA-MB-436 rel IC50.
Source text: as §1

The test system of the next experiment is monoubiquitinated PCNA. Briefly: AlphaLISA assay measuring monoubiquitinated PCNA in MDA-MB-436. The class given is cell-based. The note with it: Homo sapiens, MDA-MB-436, monoubiquitinated PCNA, read-out: Alpha Lisa IC50. From the text: Table 1 also indicates IC50 values for exemplary compounds in an AlphaLISA assay measuring monoubiquitinated PCNA in a BRCA1 mutant cell line (MDA-MB-436; column 7).

A word on the IC50: it is the concentration needed to halve the response being measured.

Chain of USP1-UAF1 (O94782 whole entry): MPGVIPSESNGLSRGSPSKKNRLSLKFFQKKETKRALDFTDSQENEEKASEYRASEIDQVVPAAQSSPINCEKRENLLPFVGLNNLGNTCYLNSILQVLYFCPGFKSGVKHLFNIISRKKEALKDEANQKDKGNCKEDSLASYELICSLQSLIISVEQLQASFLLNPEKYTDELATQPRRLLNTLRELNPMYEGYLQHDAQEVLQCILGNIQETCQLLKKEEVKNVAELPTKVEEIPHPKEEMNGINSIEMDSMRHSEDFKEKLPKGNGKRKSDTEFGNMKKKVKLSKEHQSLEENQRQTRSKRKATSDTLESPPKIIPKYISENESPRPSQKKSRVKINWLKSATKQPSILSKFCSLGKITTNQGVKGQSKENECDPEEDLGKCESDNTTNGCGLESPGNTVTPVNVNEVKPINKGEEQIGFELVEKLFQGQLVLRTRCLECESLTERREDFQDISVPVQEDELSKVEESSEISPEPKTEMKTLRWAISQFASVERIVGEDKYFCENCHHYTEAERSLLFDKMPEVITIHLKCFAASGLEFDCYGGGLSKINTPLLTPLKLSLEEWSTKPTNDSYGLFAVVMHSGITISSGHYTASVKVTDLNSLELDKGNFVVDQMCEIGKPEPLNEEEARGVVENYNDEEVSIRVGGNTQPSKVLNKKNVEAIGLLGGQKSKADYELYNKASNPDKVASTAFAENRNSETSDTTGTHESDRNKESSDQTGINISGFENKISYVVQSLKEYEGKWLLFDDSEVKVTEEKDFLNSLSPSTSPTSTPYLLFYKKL
Chain of USP1-UAF1 (Q8TAF3 whole entry partner): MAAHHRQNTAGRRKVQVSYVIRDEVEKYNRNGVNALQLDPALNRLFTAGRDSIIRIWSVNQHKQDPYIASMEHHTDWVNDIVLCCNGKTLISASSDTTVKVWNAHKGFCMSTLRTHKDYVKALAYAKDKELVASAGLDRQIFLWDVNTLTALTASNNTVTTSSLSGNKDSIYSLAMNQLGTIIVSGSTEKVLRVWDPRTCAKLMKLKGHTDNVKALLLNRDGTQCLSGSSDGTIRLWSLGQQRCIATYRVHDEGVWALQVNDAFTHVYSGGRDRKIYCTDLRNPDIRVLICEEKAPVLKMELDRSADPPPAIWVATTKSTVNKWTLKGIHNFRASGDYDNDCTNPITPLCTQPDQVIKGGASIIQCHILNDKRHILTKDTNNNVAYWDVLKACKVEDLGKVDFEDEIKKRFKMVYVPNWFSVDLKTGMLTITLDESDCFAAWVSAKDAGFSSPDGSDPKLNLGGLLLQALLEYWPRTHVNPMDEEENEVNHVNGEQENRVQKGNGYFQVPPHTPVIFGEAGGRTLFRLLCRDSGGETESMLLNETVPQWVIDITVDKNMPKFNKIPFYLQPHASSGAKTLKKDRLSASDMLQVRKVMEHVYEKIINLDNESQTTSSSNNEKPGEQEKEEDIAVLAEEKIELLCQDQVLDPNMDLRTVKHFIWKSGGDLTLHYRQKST

As for `COc1ncnc(C2CC2(F)F)c1-c1ncc2c(n1)n(Cc1ccc(-c3nc(C(F)(F)F)cn3C)cc1)c(=N)n2CC(F)(F)F` (stereo not shown) [Example T-116, 2-[4-(2,2-difluorocyclopropyl)-6-methoxy-pyrimidin-5-yl]-9-[[4-[1-methyl-4-(trifluoromethyl)imidazol-2-yl]phenyl]methyl]-7-(2,2,2-trifluoroethyl)purin-8-imine], the IC50 on USP1-UAF1 is 100 to 10000 nM; in the experiment with HCC1954, no less than 10000 nM; in the experiment with MDA-MB-436, less than 100 nM; with monoubiquitinated PCNA, less than 100 nM.
Regarding `COc1ncnc(C2CC2)c1-c1ncc2c(n1)n(Cc1ccc(-n3nc(C(F)(F)F)cc3OC)cc1)c(=N)n2CC(F)(F)F` [Example T-117, 2-(4-cyclopropyl-6-methoxy-pyrimidin-5-yl)-9-[[4-[5-methoxy-3-(trifluoromethyl)pyrazol-1-yl]phenyl]methyl]-7-(2,2,2-trifluoroethyl)purin-8-imine], the 50% inhibitory concentration (IC50) on USP1-UAF1 is 30 to 100 nM; in the experiment on HCC1954, no less than 10000 nM; in the experiment with MDA-MB-436, less than 100 nM; in the experiment on monoubiquitinated PCNA, less than 100 nM.
Consider `COc1ncnc(C2CC2)c1-c1ncc2c(n1)n(Cc1ccc(-c3nc(C(F)(F)F)cn3C)c(F)c1)c(=N)n2CC(F)(F)F` [Example T-118, 2-(4-cyclopropyl-6-methoxypyrimidin-5-yl)-9-(3-fluoro-4-(1-methyl-4-(trifluoromethyl)-1H-imidazol-2-yl)benzyl)-7-(2,2,2-trifluoroethyl)-7H-purin-8(9H)-imine], for which the IC50 on USP1-UAF1 was 100 to 10000 nM; with HCC1954 it was no less than 10000 nM; in the experiment on MDA-MB-436 it was less than 100 nM; in the experiment on monoubiquitinated PCNA it was less than 100 nM.
For `CCOc1ncnc(C2CC2)c1-c1ncc2c(n1)n(Cc1ccc(-c3nc(C(F)(F)F)cn3C)cc1)c(=N)n2CC(F)(F)F` [Example T-119, 2-(4-cyclopropyl-6-ethoxy-pyrimidin-5-yl)-9-[[4-[1-methyl-4-(trifluoromethyl)imidazol-2-yl]phenyl]methyl]-7-(2,2,2-trifluoroethyl)purin-8-imine], the IC50 against USP1-UAF1 was 100 to 10000 nM; in the experiment with HCC1954, no less than 10000 nM; in the experiment on MDA-MB-436 it was 100 to 250 nM; in the experiment with monoubiquitinated PCNA, 100 to 250 nM.
Turning to `COc1ncnc(C2CC2)c1-c1ncc2c(n1)n(Cc1ccc(-c3nc(C(F)(F)F)cn3C3CCC3)cc1)c(=N)n2CC(F)(F)F` [Example T-120, 9-[[4-[1-cyclobutyl-4-(trifluoromethyl)imidazol-2-yl]phenyl]methyl]-2-(4-cyclopropyl-6-methoxy-pyrimidin-5-yl)-7-(2,2,2-trifluoroethyl)purin-8-imine], the IC50 was less than 30 nM at USP1-UAF1, no less than 10000 nM in the experiment on HCC1954, less than 100 nM in the experiment on MDA-MB-436 and less than 100 nM with monoubiquitinated PCNA.
Consider `COc1nccc(F)c1-c1ncc2c(n1)n(Cc1ccc(-c3nc(C(F)(F)F)cn3C)cc1)c(=N)n2CC(F)(F)F` [Example T-121, 2-(4-fluoro-2-methoxy-3-pyridyl)-9-[[4-[1-methyl-4-(trifluoromethyl)imidazol-2-yl]phenyl]methyl]-7-(2,2,2-trifluoroethyl)purin-8-imine], for which the IC50 against USP1-UAF1 is 30 to 100 nM; in the experiment with HCC1954, no less than 10000 nM; in the experiment on MDA-MB-436, 100 to 250 nM; in the experiment on monoubiquitinated PCNA, 250 to 10000 nM.
On to `CNc1nc(OC)c(-c2ncc3c(n2)n(Cc2ccc(-c4nc(C(F)(F)F)cn4C)cc2)c(=N)n3C)c(C2CC2)n1` [Example T-122, 4-cyclopropyl-5-[8-imino-7-methyl-9-[[4-[1-methyl-4-(trifluoromethyl)imidazol-2-yl]phenyl]methyl]purin-2-yl]-6-methoxy-N-methyl-pyrimidin-2-amine], for which the IC50 against USP1-UAF1 is 100 to 10000 nM; with HCC1954, no less than 10000 nM; in the experiment on MDA-MB-436, 100 to 250 nM; with monoubiquitinated PCNA, 250 to 10000 nM.
For the compound `COc1ncnc(C2CC2)c1-c1ncc2c(n1)n(Cc1ccc(-c3nc(C(F)(F)F)cn3C)cc1)c(=N)n2CC(F)F` [Example T-123, 2-(4-cyclopropyl-6-methoxy-pyrimidin-5-yl)-7-(2,2-difluoroethyl)-9-[[4-[1-methyl-4-(trifluoromethyl)imidazol-2-yl]phenyl]methyl]purin-8-imine], the IC50 was 30 to 100 nM against USP1-UAF1, no less than 10000 nM in the experiment on HCC1954, less than 100 nM in the experiment on MDA-MB-436 and less than 100 nM in the experiment on monoubiquitinated PCNA.
Consider `COc1cc(C(F)(F)F)nn1-c1ccc(Cn2c(=N)n(CC(F)(F)F)c3cnc(-c4c(C)cnn4C(C)C)nc32)cc1` [Example T-124, 2-(2-isopropyl-4-methyl-pyrazol-3-yl)-9-[[4-[5-methoxy-3-(trifluoromethyl)pyrazol-1-yl]phenyl]methyl]-7-(2,2,2-trifluoroethyl)purin-8-imine], for which the IC50 at USP1-UAF1 was less than 30 nM; in the experiment on HCC1954 it was no less than 10000 nM; in the experiment on MDA-MB-436, less than 100 nM; in the experiment with monoubiquitinated PCNA, less than 100 nM.
`Cn1cc(C(F)(F)F)nc1-c1ccc(Cn2c(=N)n(CC(F)(F)F)c3cnc(-c4cccnc4OC(F)F)nc32)cc1` [Example T-125, 2-[2-(difluoromethoxy)-3-pyridyl]-9-[[4-[1-methyl-4-(trifluoromethyl)imidazol-2-yl]phenyl]methyl]-7-(2,2,2-trifluoroethyl)purin-8-imine]: the IC50 on USP1-UAF1 fell in the range of 30 to 100 nM; in the experiment with HCC1954, 250 to 10000 nM; in the experiment on MDA-MB-436, 100 to 250 nM; in the experiment on monoubiquitinated PCNA, 100 to 250 nM.
For `COc1ncnc(C2CC2)c1-c1ncc2c(n1)n(Cc1cc(F)c(-c3nc(C(F)(F)F)cn3C)c(F)c1)c(=N)n2CC(F)(F)F` [Example T-126, 2-(4-cyclopropyl-6-methoxy-pyrimidin-5-yl)-9-[[3,5-difluoro-4-[1-methyl-4-(trifluoromethyl)imidazol-2-yl]phenyl]methyl]-7-(2,2,2-trifluoroethyl)purin-8-imine], the IC50 on USP1-UAF1 was 30 to 100 nM; with HCC1954, no less than 10000 nM; with MDA-MB-436 it was less than 100 nM; with monoubiquitinated PCNA, less than 100 nM.
`COc1ncnc(C2CC2)c1-c1ncc2c(n1)n(Cc1cc(F)c(-n3nc(C(F)(F)F)cc3OC)c(F)c1)c(=N)n2CC(F)(F)F` [Example T-127]: the IC50 on USP1-UAF1 is 30 to 100 nM; in the experiment on HCC1954, no less than 10000 nM; in the experiment with MDA-MB-436, less than 100 nM; with monoubiquitinated PCNA, less than 100 nM.
Regarding `COc1ncnc(C2CC2)c1-c1ncc2c(n1)n(Cc1ccc(-c3nc(C(F)(F)F)sc3C)cc1)c(=N)n2CC(F)(F)F` [Example T-128], the IC50 on USP1-UAF1 is less than 30 nM; in the experiment on HCC1954 it was 250 to 10000 nM; with MDA-MB-436, less than 100 nM; with monoubiquitinated PCNA, less than 100 nM.
As for `Cc1cnn(C(C)C)c1-c1ncc2c(n1)n(Cc1ccc(-c3nc(C(F)(F)F)cn3C)cc1)c(=N)n2CC(F)(F)F` [Example T-130, 2-(2-isopropyl-4-methyl-pyrazol-3-yl)-9-[[4-[1-methyl-4-(trifluoromethyl)imidazol-2-yl]phenyl]methyl]-7-(2,2,2-trifluoroethyl)purin-8-imine], the IC50 is less than 30 nM on USP1-UAF1, no less than 10000 nM with HCC1954, less than 100 nM in the experiment with MDA-MB-436 and less than 100 nM in the experiment on monoubiquitinated PCNA.
Turning to `COc1ncnc(C2CC2)c1-c1ncc2c(n1)n([C@H](C)c1ccc(-c3nc(C(F)(F)F)cn3C)cc1)c(=N)n2C` [Example T-131, 2-(4-cyclopropyl-6-methoxy-pyrimidin-5-yl)-7-methyl-9-[(1R)-1-[4-[1-methyl-4-(trifluoromethyl)imidazol-2-yl]phenyl]ethyl]purin-8-imine], the IC50 against USP1-UAF1 was 30 to 100 nM; in the experiment with HCC1954, no less than 10000 nM; in the experiment with MDA-MB-436, less than 100 nM; in the experiment on monoubiquitinated PCNA, less than 100 nM.
Take `CCn1cc(C(F)(F)F)nc1-c1ccc(Cn2c(=N)n(CC(F)(F)F)c3cnc(-c4c(OC)ncnc4C4CC4)nc32)cc1` [Example T-132]: the IC50 against USP1-UAF1 was 30 to 100 nM; with HCC1954 it was no less than 10000 nM; with MDA-MB-436 it was less than 100 nM; with monoubiquitinated PCNA it was less than 100 nM.
As for `COCCn1c(=N)n(Cc2ccc(-c3nc(C(F)(F)F)cn3C)cc2)c2nc(-c3c(OC)ncnc3C3CC3)ncc21` [Example T-134, 2-(4-cyclopropyl-6-methoxy-pyrimidin-5-yl)-7-(2-methoxyethyl)-9-[[4-[1-methyl-4-(trifluoromethyl)imidazol-2-yl]phenyl]methyl]purin-8-imine], the IC50 against USP1-UAF1 was 100 to 10000 nM; in the experiment with HCC1954, no less than 10000 nM; in the experiment on MDA-MB-436, 100 to 250 nM; in the experiment on monoubiquitinated PCNA it was 250 to 10000 nM.
`[2H]C([2H])([2H])Oc1ncnc(C2CC2)c1-c1ncc2c(n1)n(Cc1ccc(-c3nc(C(F)(F)F)cn3C(C)C)cc1)c(=N)n2CC(F)(F)F` [Example T-135, 2-[4-cyclopropyl-6-(trideuteriomethoxy)pyrimidin-5-yl]-9-[[4-[1-isopropyl-4-(trifluoromethyl)imidazol-2-yl]phenyl]methyl]-7-(2,2,2-trifluoroethyl)purin-8-imine]: the IC50 on USP1-UAF1 is 30 to 100 nM; in the experiment with HCC1954 it was no less than 10000 nM; with MDA-MB-436, less than 100 nM; in the experiment with monoubiquitinated PCNA, 100 to 250 nM.
Consider `COc1ccnc(C2CC2)c1-c1ncc2c(n1)n(Cc1ccc(-n3nc(C(F)(F)F)cc3OC)cc1)c(=N)n2CC(F)(F)F` [Example T-136, 2-(2-cyclopropyl-4-methoxy-3-pyridyl)-9-[[4-[5-methoxy-3-(trifluoromethyl)pyrazol-1-yl]phenyl]methyl]-7-(2,2,2-trifluoroethyl)purin-8-imine], for which the IC50 at USP1-UAF1 was 30 to 100 nM; in the experiment with HCC1954, no less than 10000 nM; in the experiment with MDA-MB-436, 100 to 250 nM; in the experiment on monoubiquitinated PCNA, 100 to 250 nM.
